The results in this text go back to patent US20190375708A1 (VenatoRx Pharmaceuticals, Inc., priority 2018, published 2019).

Data set [1] deals with HBV replication in HepAD38 cells. Kind of data set: Anti-HBV replication assay in HepAD38 cells (QPCR of extracellular HBV DNA). To be noted: Hepatitis B virus, 168 h, 7 days incubation, extracellular HBV DNA by QPCR, read-out: Anti-HBV EC50. In kind it is cell-based, HBV (genotype D, serotype ayw). Put shortly:
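EC50 values reflect 50% reduction of extracellular HBV DNA, measured by QPCR after 7-day treatment of tetracycline-deprived HepAD38 cells with compound […].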

Data set [2] is described as follows: In vitro cytotoxicity assay (MTT cell viability) in HepG2 cells. As to conditions: human. The data set is classed as cell-based, human. The method, boiled down:
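Viability measured by MTT conversion, absorbance at 492 nm, as percent of vehicle-treated wells. Compounds spanned 30 μM to 1.0 nM in half-log steps over a 7-day exposure of parental HepG2 cells; CC50 derived by 4-parameter curve fit.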

Each structure is given as a SMILES string.

What is called EC50 is the concentration at which the effect is half-maximal. By CC50 is commonly meant the concentration at which the toxic effect on the cells reaches its halfway point. Consider `Cc1cc(NC(=O)c2c(C)c(C(=O)C(=O)N[C@@H](CO)[C@H](C)O)n(C)c2C)ccc1F` [Example 103, 5-(2-(((2S,3S)-1,3-dihydroxybutan-2-yl)amino)-2-oxoacetyl)-N-(4-fluoro-3-methylphenyl)-1,2,4-trimethyl-1H-pyrrole-3-carboxamide], for which, in data set [1], the EC50 is less than 50 nM. Moreover, in data set [2], the CC50 at 7 days is greater than 30 µM.
For `Cc1cc(NC(=O)c2c(C)c(C(=O)C(=O)NC3C(=O)NCC3(C)C)n(C)c2C)ccc1F` (centres unmarked) [Example 679, 5-(2-((4,4-dimethyl-2-oxopyrrolidin-3-yl)amino)-2-oxoacetyl)-N-(4-fluoro-3-methylphenyl)-1,2,4-trimethyl-1H-pyrrole-3-carboxamide] the same measures were less than 50 nM and greater than 30 µM.
For `Cc1cc(NC(=O)c2c(C)c(C(=O)C(=O)N[C@@H]3CCNC3=O)n(C)c2C)ccc1F` [Example 672, (R)-N-(4-fluoro-3-methylphenyl)-1,2,4-trimethyl-5-(2-oxo-2-((2-oxopyrrolidin-3-yl)amino)acetyl)-1H-pyrole-3-carboxamide] the same measures were less than 50 nM and greater than 30 µM.
For `Cc1cc(NC(=O)c2c(C)c(C(=O)C(=O)NC3CCN(C)C(=O)C3)n(C)c2C)ccc1F` (centres unmarked) [Example 609, N-(4-fluoro-3-methylphenyl)-1,2,4-trimethyl-5-(2-((1-methyl-2-oxopiperidin-4-yl)amino)-2-oxoacetyl)-1H-pyrrole-3-carboxamide] the same measures were less than 50 nM and greater than 30 µM.
As for `Cc1cc(NC(=O)c2c(C)c(C(=O)C(=O)NC(C)(C)c3noc(CN(C)C)n3)n(C)c2C)cnc1F` [Example 200, 5-(2-((2-(5-((dimethylamino)methyyl)-1,2,4-oxadiazol-3-yl)propan-2-yl)amino)-2-oxoacetyl)-N-(6-fluoro-5-methylpyridin-3-yl)-1,2,4-trimethyl-1H-pyrrole-3-carboxamide], the EC50 in data set [1] is 50 to 499 nM. The half-maximal cytotoxic concentration (CC50) at 7 days in data set [2] is greater than 30 µM.
For `Cc1cc(NC(=O)c2c(C)c(C(=O)C(=O)NC3(CN4CCOCC4)CCCC3)n(C)c2C)ccc1F` [Example 595, N-(4-fluoro-3-methylphenyl)-1,2,4-trimethyl-5-(2-((1-(morpholinomethyl)cyclopentyl)amino)-2-oxoacetyl)-1H-pyrrole-3-carboxamide] the same measures were less than 50 nM and greater than 30 µM.
For `Cc1cc(NC(=O)c2c(C)c(C(=O)C(=O)N[C@H]3C[C@H](O)C3)n(C)c2C)ccc1F` [Example 129, N-(4-fluoro-3-methylphenyl)-5-(22-(((1r,3r)-3-hydroxycyclobutyl)amino)-2-oxoacetyl)-1,2,4-trimethyl-1H-pyrrole-3-carboxamide] the same measures were less than 50 nM and greater than 30 µM.
For `Cc1cc(NC(=O)c2c(C)c(C(=O)C(=O)NC(C)(C)C(N)=O)n(C)c2C)ccc1F` [Example 36, 5-(2-((1-amino-2-methyl-1-oxopropan-2-yl)amino)-2-oxoacetyl)-N-(4-fluoro-3-methylphenyl)-1,2,4-trimethyl-1H-pyrrole-3-carboxamide] the same measures were less than 50 nM and greater than 30 µM.
Consider `Cc1cc(NC(=O)c2c(C)c(C(=O)C(=O)N[C@H](C(=O)O)C(C)(C)C)n(C)c2C)ccc1F` [Example 30, (S)-2-(22-(4-((4-fluoro-3-methylphenyl)carbamoyl)-1,3,5-trimethyl-1H-pyrrol-2-yl)-2-oxoacetamido)-3,3-dimethylbutanoic acid], for which, in data set [1], the EC50 was greater than 1000 nM. This molecule also came in with a CC50 at 7 days in data set [2] greater than 30 µM.
For `Cc1cc(NC(=O)c2c(C)c(C(=O)C(=O)NCCc3cccs3)n(C)c2C)ccc1F` [Example 347, N-(4-fluoro-3-methylphenyl)-1,2,4-trimethyl-5-(2-oxo-2-((2-(thiophen-2-yl)ethyl)amino)acetyl)-1H-pyrrole-3-carboxamide] the same measures were less than 50 nM and greater than 30 µM.
For `Cc1c(C(=O)Nc2ccn(C)n2)c2n(c1C(=O)C(=O)NC1(CO)CCC1)CCCC2` [Example 748, 3-(2-((1-(hydroxymethyl)cyclobutyl)amino)-2-oxoacetyl)-2-methyl-N-(1-methyl-1H-pyrazol-3-yl)-5,6,7,8-tetrahydroindolizine-1-carboxamide] the same measures were 50 to 499 nM and greater than 30 µM.
For `Cc1cc(NC(=O)c2cc(C(=O)C(=O)N[C@@H](CO)[C@H](C)O)n3c2CCCC3)ccc1F` [Example 417, 3-(2-(((2S,3S)-1,3-dihydroxybutan-2-yl)amino)-2-oxoacetyl)-N-(4-fluoro-3-methylphenyl)-5,6,7,8-tetrahydroindolizine-1-carboxamide] the same measures were 50 to 499 nM and greater than 30 µM.
`Cc1c(C(=O)Nc2ccc(F)c(F)c2)c(C)n(C)c1C(=O)C(=O)Nc1ccc(F)cn1` [Example 295, N-(3,4-difluorophenyl)-5-(2-((5-fluoropyridin-2-yl)amino)-2-oxoacetyl)-1,2,4-trimethyl-1H-pyrrole-3-carboxamide]: the EC50 in data set [1] is less than 50 nM. The molecule also registered a CC50 at 7 days in data set [2] of 5 to 30 µM.
For `Cc1cc(NC(=O)c2c(C)c(C(=O)C(=O)N[C@H]3CCNC3=O)n(C)c2C)ccc1F` [Example 671, (S)-N-(4-fluoro-3-emthylphenyl)-1,2,4-trimethyl-5-(2-oxo-2-((2-oxopyrroldin-3-yl)amino)acetyl)-1H-pyrrole-3-carboxamide] the same measures were less than 50 nM and greater than 30 µM.
For `CC(=O)N1CCn2c(C(=O)C(=O)NC(C)(C)C)cc(C(=O)Nc3ccc(F)c(C)c3)c2C1` [Example 590, 2-acetyl-6-(2-(tert-butylamino)-2-oxoacetyl)-N-(4-fluoro-3-methylphenyl)-1,2,3,4-tetrahydropyrrolo[1,2-a]pyrazine-8-carboxamide] the same measures were 500 to 1000 nM and greater than 30 µM.
For `Cc1cc(NC(=O)c2c(C)c(C(=O)C(=O)NC(C)(C)C(F)(F)F)n(CCF)c2C)ccc1F` [Example 227, N-(4-fluoro-3-methylphenyl)-1-(2-fluoroethyl)-2,4-dimethyl-5-(2-oxo-2-((1,1,1-trifluoro-2-methylpropan-2-yl)amino)acetyl)-1H-pyrrole-3-carboxamide] the same measures were less than 50 nM and greater than 30 µM.
As to `Cc1c(C(=O)Nc2ccc(F)c(Cl)c2)c2n(c1C(=O)C(=O)NC1(CO)CCC1)CCCC2` [Example 452, N-(3-chloro-4-fluorophenyl)-3-(2-((1-(hydroxymethyl)cyclobutyl)amino)-2-oxoacetyl)-2-methyl-5,6,7,8-tetrahydroindolizine-1-carboxamide], the half-maximal effective concentration (EC50) in data set [1] is less than 50 nM. Further, the CC50 at 7 days in data set [2] lay in the range of 5 to 30 µM.
Take `Cc1cc(NC(=O)c2c(Cl)c(C(=O)C(=O)N[C@@H](C)C(F)(F)F)n3c2CCC3)cnc1F` [Example 574, (S)-6-chloro-N-(6-ffluoro-5-methylpyridin-3-yl)-5-(2-oxo-2-((1,1,1-trifluoropropan-2-yl)amino)acetyl)-2,3-dihydro-1H-pyrroliine-7-carboxamide]: the EC50 in data set [1] lay within 500 to 1000 nM. In data set [2], this molecule gave a half-maximal cytotoxic concentration (CC50) at 7 days of 5 to 30 µM.
For `Cc1cc(NC(=O)c2c(C)c(C(=O)C(=O)N[C@H](C)C(F)(F)F)n(C)c2C)ccc1F` [Example 289, (R)-N-(4-fluoro-3-methylphenyl)-1,2,4-trimethyl-5-(2-oxo-2-((1,1,1-trifluoropropan-2-yl)amino)acetyl)-1H-pyrrole-3-carboxamide] the same measures were less than 50 nM and 5 to 30 µM.
For `CC(C)(CO)CNC(=O)C(=O)c1c(Cl)c(C(=O)Nc2ccc(F)c(Cl)c2)c2n1CCC2` [Example 556, 6-chloro-N-(3-chloro-4-fluorophenyl)-5-(2-((3-hydroxy-2,2-dimethylpropyl)amino)-2-oxoacetyl)-2,3-dihydro-1H-pyrrolizine-7-carboxamide] the same measures were 50 to 499 nM and 5 to 30 µM.
For `Cc1cc(NC(=O)c2cc(C(=O)C(=O)N[C@@H](C(=O)O)C(C)(C)C)n3c2CCCC3)ccc1F` [Example 422, (R)-2-(2-(1-((4-fluoro-3-methylphenyl)carbamoyl)-5,6,7,8-tetrahydroindolizin-3-yl)-2-oxoacetamido)-3,3-dimethylbutanoic acid] the same measures were greater than 1000 nM and greater than 30 µM.
With `CC(=O)N1CC(C)(NC(=O)C(=O)c2c(C)c(C(=O)Nc3ccc(F)c(C)c3)c(C)n2C)C1` [Example 645, 5-(2-((1-acetyl-3-methylazetidin-3-yl)amno)-2-oxoacetyl)-N-(4-fluoro-3-methylphenyl)-1,2,4-trimethyl-1H-pyrrole-3-carboxamide], in data set [1], the EC50 is less than 50 nM. This molecule had a CC50 at 7 days in data set [2] greater than 30 µM.
For `Cc1cc(NC(=O)c2c(Cl)c(C(=O)C(=O)NCc3cnc(N)s3)n3c2CCC3)cnc1F` [Example 734, 5-(2-(((2-aminothiazol-5-yl)methyl)amino)-2-oxoacetyl)-6-chloro-N-(6-fluoro-5-methylpyridin-3-yl)-2,3-dihydro-1H-pyrrolizine-7-carboxamide] the same measures were less than 50 nM and greater than 30 µM.
For `Cc1cc(NC(=O)c2c(C)c(C(=O)C(=O)N[C@H]3CCC[C@H](O)C3)n(C)c2C)ccc1F` [Example 618, N-(4-fluoro-3-methylphenyl)-5-(2-(((1S,3S)-3-hydroxycyclohexyl)amino)-2-oxoacetyl)-1,2,4-trimethyl-1H-pyrrole-3-carboxamide] the same measures were less than 50 nM and greater than 30 µM.
For `Cc1cc(NC(=O)c2c(Cl)c(C(=O)C(=O)N[C@H]3CCC[C@H]3O)n3c2CCC3)ccc1F` [Example 547, 6-chloro-N-(4-fluoro-3-methylphenyl)-5-(2-(((1S,2R)-2-hydroxycyclopentyl)amino)-2-oxoacetyl)-2,3-dihydro-1H-pyrrolizine-7-carboxamide] the same measures were 50 to 499 nM and 5 to 30 µM.
